Consider eight molecules from ChEMBL document CHEMBL1128087, “Novel substituted indolocarbazoles as potent and selective inhibitors of protein kinase C” (Bioorg Med Chem Lett, 1995).

The target of this experiment is cAMP-dependent protein kinase (PKA) (Homo sapiens) (UniProt P22694+P17612+P22612). The experiment can be described thus: In vitro inhibitory activity against Protein Kinase A at a concentration of 10 uM. The class given is protein assay.

Molecule `COC(=O)c1cc(C(=O)c2cc(C(=O)c3cc(NC(=O)CCn4c5ccccc5c5c6c(c7c8ccccc8[nH]c7c54)C(=O)NC6)cn3C)cn2C)cn1C` gave an inhibition of 40%.

In the case of `COC(=O)c1cc(NC(=O)CCn2c3ccccc3c3c4c(c5c6ccccc6[nH]c5c32)C(=O)NC4)cn1C`, the inhibition stood at 40%.

For the molecule `CN1CCCC1CCNC(=O)CCn1c2ccccc2c2c3c(c4c5ccccc5[nH]c4c21)C(=O)NC3` (stereo not drawn), the inhibition was found to be 25%.

Consider `O=C(CCn1c2ccccc2c2c3c(c4c5ccccc5[nH]c4c21)C(=O)NC3)NCCN1CCCCC1`, for which the inhibition came out at 42%.

`CN(C)CCCNC(=O)CCn1c2ccccc2c2c3c(c4c5ccccc5[nH]c4c21)C(=O)NC3`: the inhibition was 41%.

In turn, `COC(=O)c1cc(C(=O)c2cc(NC(=O)CCn3c4ccccc4c4c5c(c6c7ccccc7[nH]c6c43)C(=O)NC5)cn2C)cn1C` showed an inhibition of 43%.

In turn, `O=C(CCn1c2ccccc2c2c3c(c4c5ccccc5[nH]c4c21)C(=O)NC3)NCCN1CCOCC1` registered an inhibition of 49%.

For the molecule `O=C(CCn1c2ccccc2c2c3c(c4c5ccccc5[nH]c4c21)C(=O)NC3)NCC1CCOC1` (stereo not drawn), the inhibition was 41%.

What is called inhibition is the relative decrease from the control value, in per cent. Read a low inhibition as a weak effect.
